The values below come from US10098902B2, “Arginase inhibitors as therapeutics” (Mars, Incorporated, priority 2010, dated 2018).

Assay [1] concerns animals undergoing experimental autoimmune encephalomyelitis (EAE). Conditions: mouse, in vivo; cited from earlier work.
The target of the next assay is human arginase I (ARG I) (Homo sapiens (Human), UniProt P05089). Description: Inhibition of arginase I, spectrophotometric urea assay at 530 nm. The format is biochemical. Conditions: potency rank 1-5; pH 7.4, 37° C., 60 minutes. Here is the method:
(§1) Inhibition of arginase I (ARG I) and arginase II (ARG II) by Formula I or Formula II compounds is followed spectrophotometrically at 530 nm. The compound to be tested was dissolved in DMSO at an initial concentration 50-fold greater than its final concentration in the cuvette. 10 μl of the stock solution was diluted in 90 μl of the assay buffer that comprises 0.1M sodium phosphate buffer containing 130 mM NaCl, pH 7.4, to which is added ovalbumin (OVA) at a concentration of 1 mg/ml. Solutions of arginase I and II were prepared in 100 mM sodium phosphate buffer, pH 7.4 containing 1 mg/ml of OVA to give an arginase stock solution at a final concentration of 100 ng/ml.
(§2) To each well of a 96-well microtiter plate was added 40 μl of enzyme, 10 μl of an inventive compound and 10 μl of enzyme substrate (L-arginine+manganese sulfate). For wells that were used as positive controls, only the enzyme and its substrate were added, while wells used as negative controls contained only manganese sulfate.
(§3) After incubating the microtiter plate at 37° C. for 60 minutes, 150 μl of a urea reagent obtained by combining equal proportions (1:1) of reagents A and B is added to each well of the microtiter plate to stop the reaction. The urea reagent is made just before use by combining Reagent A (10 mM o-phthaldialdehyde, and 0.4% polyoxyethylene (23) lauryl ether (w/v) in 1.8 M sulfuric acid) with Reagent B (1.3 mM primaquine diphosphate, 0.4% polyoxyethylene (23) lauryl ether (w/v), 130 mM boric acid in 3.6 mM sulfuric acid). After quenching the reaction mixture, the microtiter plate is allowed to stand for an additional 10 minutes at room temperature to allow the color to develop. The inhibition of arginase was computed by measuring the optical density (OD) of the reaction mixture at 530 nm and normalizing the OD value to percent inhibition observed in the control. The normalized OD is then used to generate a dose-response curve by plotting the normalized OD values against log [concentration] and using regression analysis to compute the IC50 values.

Assay [2] has as its target human arginase II (ARG II) (Homo sapiens (Human), UniProt P78540). In words: Inhibition of arginase II, spectrophotometric urea assay at 530 nm. The format is biochemical. Conditions: potency rank 1-5; pH 7.4, 37° C., 60 minutes. Here is the method:
as §1, §2, §3

For a further assay, the system named is bacterial arginase. As to conditions: cited from earlier work.
Assay [3] deals with central airways in the murine chronic model. As to conditions: murine chronic asthma model; cited from earlier work.
In assay [4] the test system is spontaneously hypertensive animals. As to conditions: cited from earlier work.

The pIC50 is the IC50 on a negative log10 scale, so that one unit is a factor of ten.

pIC50: −log10 of the molar value.

human arginase I (ARG I), sequence (P05089 whole entry): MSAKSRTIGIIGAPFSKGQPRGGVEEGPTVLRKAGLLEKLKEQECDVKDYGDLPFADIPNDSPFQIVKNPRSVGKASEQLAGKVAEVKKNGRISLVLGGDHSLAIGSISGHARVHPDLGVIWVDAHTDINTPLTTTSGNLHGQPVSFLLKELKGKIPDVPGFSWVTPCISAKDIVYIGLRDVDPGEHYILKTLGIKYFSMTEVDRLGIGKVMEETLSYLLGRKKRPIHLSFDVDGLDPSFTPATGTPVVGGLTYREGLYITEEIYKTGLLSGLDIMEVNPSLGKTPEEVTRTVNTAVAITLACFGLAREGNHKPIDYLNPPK
human arginase II (ARG II), sequence (P78540 23-354): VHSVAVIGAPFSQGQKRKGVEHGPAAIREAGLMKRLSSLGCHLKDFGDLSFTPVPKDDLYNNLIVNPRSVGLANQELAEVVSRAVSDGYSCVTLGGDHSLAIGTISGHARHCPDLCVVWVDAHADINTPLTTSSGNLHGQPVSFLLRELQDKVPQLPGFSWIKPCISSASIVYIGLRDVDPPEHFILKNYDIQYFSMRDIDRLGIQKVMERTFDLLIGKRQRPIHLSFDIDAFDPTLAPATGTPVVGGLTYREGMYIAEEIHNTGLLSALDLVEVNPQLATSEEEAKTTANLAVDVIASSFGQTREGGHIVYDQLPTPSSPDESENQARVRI

`NC(CCCCB(O)O)C(=O)O` (stereo not shown) [ABH, amino-6-boronohexanoic acid]: in assay [1], the “severity of EAE versus control animals” value is “much milder form of EAE”. With `N[C@@]1(C(=O)O)CN(CCNc2ccc(-c3ccccc3)cc2)C[C@@H]1CCCB(O)O` [Example 52, (3R,4S)-3-amino-1-(2-(biphenyl-4-ylamino)ethyl)-4-(3-boronopropyl)pyrrolidine-3-carboxylic acid], the pIC50 (on human arginase I (ARG I); in assay [2]) was 6.60 to 10.00 throughout. For the compound `N[C@@]1(C(=O)O)CN(CC2Cc3ccc(C(F)(F)F)cc3CN2)C[C@@H]1CCCB(O)O` (stereo partly drawn) [Example 55, (3R,4S)-3-amino-4-(3-boronopropyl)-1-((7-(trifluoromethyl)-1,2,3,4-tetrahydroisoquinolin-3-yl)methyl)pyrrolidine-3-carboxylic acid], the negative logarithm of the IC50 (pIC50) (against human arginase I (ARG I); in assay [2]) was 6.60 to 10.00 in each case. As for `N[C@@]1(C(=O)O)CN(C(=O)C2Cc3ccc(Cl)cc3CN2)C[C@@H]1CCCB(O)O` (stereo partly drawn) [Example 56, (3R,4S)-3-amino-4-(3-boronopropyl)-1-(7-chloro-1,2,3,4-tetrahydroisoquinoline-3-carbonyl)pyrrolidine-3-carboxylic acid], the negative logarithm of the IC50 (pIC50) (against human arginase I (ARG I); in assay [2]) was 6.60 to 10.00 each time. For the compound `CNC(Cc1ccccc1)C(=O)N1C[C@H](CCCB(O)O)[C@](N)(C(=O)O)C1` (stereo partly drawn) [Example 58, (3R,4S)-3-amino-4-(3-boronopropyl)-1-(2-(methylamino)-3-phenylpropanoyl)pyrrolidine-3-carboxylic acid], the negative logarithm of the IC50 (pIC50) (against human arginase I (ARG I); in assay [2]) was 5.70 to 6.00 each time. On to `N[C@@]1(C(=O)O)CN(CC2Cc3c(Cl)cc(Cl)cc3CN2)C[C@@H]1CCCB(O)O` (stereo partly drawn) [Example 59, (3R,4S)-3-amino-4-(3-boronopropyl)-1-((5,7-dichloro-1,2,3,4-tetrahydroisoquinolin-3-yl)methyl)pyrrolidine-3-carboxylic acid], for which the pIC50 (against human arginase I (ARG I); in assay [2]) was 6.60 to 10.00 each time. In the case of `N[C@@]1(C(=O)O)CN(C(=O)CNCc2ccccc2)C[C@@H]1CCCB(O)O` [Example 60, (3R,4S)-3-amino-1-(2-(benzylamino)acetyl)-4-(3-boronopropyl)pyrrolidine-3-carboxylic acid], the values for the pIC50 (on human arginase I (ARG I); in assay [2]) were 6.00 to 6.60 and 5.70 to 6.00, respectively. Turning to `N[C@H]1C[C@H](CCCB(O)O)[C@](N)(C(=O)O)C1` [Example 61, (1S,2S,4S)-1,4-diamino-2-(3-boronopropyl)cyclopentanecarboxylic acid], the negative logarithm of the IC50 (pIC50) (at human arginase I (ARG I); in assay [2]) was 6.00 to 6.60 throughout. Regarding `NC(=NCCC[C@H](N)C(=O)O)NO` [NOHA], in the assay with bacterial arginase, the “CD3 expression on T-cells” value is given as “reestablished CD3 expression on T-cells” and the “production of NO by macrophages” value is listed as “enhanced production of NO by macrophages”. As to `N[C@@H](CSCCB(O)O)C(=O)O` [S-(2-boronoethyl)-L-cysteine], the “methacholine induced responsiveness of the central airways” value in assay [3] was “attenuated”. As to `N=C(NO)NCC[C@H](N)C(=O)O` [nor-NOHA, N^ω-hydroxy-nor-L-arginine], the “effect on blood pressure” value in assay [4] was “lowered blood pressure”.
